For one series, the system named is Plasmodium falciparum. As to the kind of experiment: Antimalarial activity against chloroquine-resistant ring stage Plasmodium falciparum W2 assessed as parasitemia after 48 hrs by flow cytometry. Format: functional, organism-based. To be noted: W2, 48 h. (Flow cytometry measures light scatter and fluorescence of single cells or particles in a stream.)
Series [1] is described as follows: Cytotoxicity against human HCT116 cells at 0.2 uM after 48 hrs by MTT assay relative to untreated control. Conditions: hct-116, 48 h. In general terms: Formazan colour is commonly taken as a measure of viable cells.
Series [2] in a line: Cytotoxicity against human HCT116 cells at 2 uM after 48 hrs by MTT assay relative to untreated control. To be noted: hct-116, 48 h.
Series [3] in a line: Cytotoxicity against human HCT116 cells at 20 uM after 48 hrs by MTT assay relative to untreated control. To be noted: hct-116, 48 h.

The structures appear in SMILES notation. pIC50: −log10 of the molar value.

One may read the pIC50 as the negative decadic logarithm of the IC50, by convention in mol/L. Take `O=C1C(=O)N(CC(CO)NCCNc2ccnc3cc(Cl)ccc23)c2ccc(Cl)cc21` (centres undefined): the pIC50 in the series on Plasmodium falciparum was 7.93. Also, the INH in series [1] was 0%; in series [2] it was -11%; in series [3], 88%.
On to `O=C1C(=O)N(CC(CO)NCCNc2ccnc3cc(Cl)ccc23)c2ccc(F)cc21` (centres undefined), for which the pIC50 with Plasmodium falciparum is 6.31.
For `O=C1C(=O)N(CC(CO)NCCNc2ccnc3cc(Cl)ccc23)c2ccccc21` (centres undefined), in the series with Plasmodium falciparum, the negative-log IC50 (pIC50) was 7.60. The INH in series [1] is reported as 0%; in series [2], 2%; in series [3] it was 91%.
On to `O=C1C(=O)N(CC(CO)NCCCNc2ccnc3cc(Cl)ccc23)c2ccccc21` (centres undefined), for which the negative logarithm of the IC50 (pIC50) with Plasmodium falciparum is 7.12. For the same compound, the INH is given as 2% in series [1], -12% in series [2] and 85% in series [3].
Regarding `O=C1C(=O)N(CC(CO)NCCCNc2ccnc3cc(Cl)ccc23)c2ccc(Cl)cc21` (centres undefined), in the series with Plasmodium falciparum, the pIC50 is 7.87. The INH in series [1] amounted to 0%; in series [2], 2%; in series [3], 46%.
As for `Cc1ccc2c(c1)C(=O)C(=O)N2CC(CO)NCCCNc1ccnc2cc(Cl)ccc12` (centres undefined), in the series with Plasmodium falciparum, the negative-log IC50 (pIC50) is 6.52.
Consider `O=C1C(=O)N(CC(CO)NCCCNc2ccnc3cc(Cl)ccc23)c2ccc(F)cc21` (centres undefined), for which the pIC50 in the series on Plasmodium falciparum was 7.14. The results for the INH in series [1], in series [2] and in series [3] were -2%, 12% and 66%, respectively.
On the same counts, the results for `O=C1C(=O)N(CC(CO)NCCCCNc2ccnc3cc(Cl)ccc23)c2ccccc21` (centres undefined) are 7.31, 0%, -5% and 37%.
Take `O=C1C(=O)N(CC(CO)NCCCCNc2ccnc3cc(Cl)ccc23)c2ccc(Cl)cc21` (centres undefined): in the series on Plasmodium falciparum, the negative logarithm of the IC50 (pIC50) was 7.00.
Same read-out and setting: the value for `Cc1ccc2c(c1)C(=O)C(=O)N2CC(CO)NCCCCNc1ccnc2cc(Cl)ccc12` (centres undefined) was 7.24.
Turning to `O=C1C(=O)N(CC(CO)NCCCCNc2ccnc3cc(Cl)ccc23)c2ccc(F)cc21` (centres undefined), in the series with Plasmodium falciparum, the negative logarithm of the IC50 (pIC50) was 7.34. Moreover, the INH is -1% in series [1], 0% in series [2] and 83% in series [3].
For `O=C1C(=O)N(CC(CO)NCCCCCCNc2ccnc3cc(Cl)ccc23)c2ccccc21` (centres undefined), the negative-log IC50 (pIC50) in the series with Plasmodium falciparum was 7.20.
`O=C1C(=O)N(CC(CO)NCCCCCCNc2ccnc3cc(Cl)ccc23)c2ccc(Cl)cc21` (centres undefined): the pIC50 in the series on Plasmodium falciparum was 7.30.
In the case of `Cc1ccc2c(c1)C(=O)C(=O)N2CC(CO)NCCCCCCNc1ccnc2cc(Cl)ccc12` (centres undefined), the negative logarithm of the IC50 (pIC50) in the series with Plasmodium falciparum is 7.25.
On the same count and under the same terms, in the case of `O=C1C(=O)N(CC(CO)NCCCCCCNc2ccnc3cc(Cl)ccc23)c2ccc(F)cc21` (centres undefined) it was 7.22; in that of `O=C1C(=O)N(CC(CO)N2CCN(c3ccnc4cc(Cl)ccc34)CC2)c2ccccc21` (centres undefined), 6.67; in that of `O=C1C(=O)N(CC(CO)N2CCN(c3ccnc4cc(Cl)ccc34)CC2)c2ccc(Cl)cc21` (centres undefined), 5.71.
Same read-out and setting: the value for `Cc1ccc2c(c1)C(=O)C(=O)N2CC(CO)N1CCN(c2ccnc3cc(Cl)ccc23)CC1` (centres undefined) was 5.91; that for `O=C1C(=O)N(CC(CO)N2CCN(c3ccnc4cc(Cl)ccc34)CC2)c2ccc(F)cc21` (centres undefined) was 5.73; that for `C[C@@H]1CC[C@H]2[C@@H](C)C(=O)O[C@@H]3O[C@@]4(C)CC[C@@H]1[C@]32OO4` [ARTEMISININ] was 8.36.
For the compound `COc1cccc2c1C(=O)c1c(O)c3c(c(O)c1C2=O)C[C@@](O)(C(=O)CO)C[C@@H]3O[C@H]1C[C@H](N)[C@H](O)[C@H](C)O1` [DOXORUBICIN], the INH is listed as 84% in series [1], 79% in series [2] and 79% in series [3].
